# In patent publication US10710980B2, “Aminopyridine derivatives and their use as selective ALK-2 inhibitors” (priority 2016, dated 2020):
# Assays:
# [1] = biological target: ALK1 (aa166-493) (Homo sapiens (Human), UniProt P37023); assay: Caliper biochemical peptide phosphorylation assay, ALK1; conditions: 15 μm ATP, 60 min at 30° C.; read-out: ALK1 EPK (IC50)
# [2] = biological target: T1, wild-type ALK2 (aa172-499) (Homo sapiens (Human), UniProt Q04771); assay: Caliper biochemical peptide phosphorylation assay, ALK2; conditions: 15 μm ATP, 60 min at 30° C.; read-out: ALK2 EPK (IC50)
# [3] = biological target: T1, wild-type ALK2 (aa172-499); assay: ADPGlo biochemical autophosphorylation assay, ALK2; conditions: 15 μm ATP, 60 min at 32° C.
# [4] = biological target: ALK5 (aa162-503) (Homo sapiens (Human), UniProt P36897); assay: Caliper biochemical peptide phosphorylation assay, ALK5; conditions: 15 μm ATP, 60 min at 30° C.; read-out: ALK5 EPK (IC50)
# [5] = biological target: ALK6 (aa168-495) (Homo sapiens (Human), UniProt O00238); assay: Caliper biochemical peptide phosphorylation assay, ALK6; conditions: 15 μm ATP, 60 min at 30° C.; read-out: ALK6 EPK (IC50)
# [6] = system: BMP response element (BRE) luciferase reporter in HuH7 cells, BMP6 stimulated; assay: BMP signaling reporter gene assay; type: cell-based; conditions: Homo sapiens, Huh-7; HuH7 BRE-luciferase, BMP6 100 ng/ml, 5 hours; read-out: MSD BMP RGA IC50
# [7] = biological target: ALK3 (aa198-525) (Homo sapiens (Human), UniProt P36894); assay: ADPGlo biochemical autophosphorylation assay, ALK3; conditions: 15 μm ATP, 60 min at 32° C.
# Chain of ALK3 (aa198-525) (P36894 198-525): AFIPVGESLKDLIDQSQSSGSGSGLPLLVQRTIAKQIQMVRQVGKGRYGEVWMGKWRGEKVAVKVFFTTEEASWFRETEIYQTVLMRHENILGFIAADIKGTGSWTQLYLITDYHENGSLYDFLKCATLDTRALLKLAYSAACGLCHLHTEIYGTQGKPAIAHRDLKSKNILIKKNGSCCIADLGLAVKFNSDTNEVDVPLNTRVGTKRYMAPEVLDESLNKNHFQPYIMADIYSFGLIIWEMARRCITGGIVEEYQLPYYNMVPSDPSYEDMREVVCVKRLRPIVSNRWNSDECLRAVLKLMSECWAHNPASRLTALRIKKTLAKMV
# Chain of ALK5 (aa162-503) (P36897 162-503): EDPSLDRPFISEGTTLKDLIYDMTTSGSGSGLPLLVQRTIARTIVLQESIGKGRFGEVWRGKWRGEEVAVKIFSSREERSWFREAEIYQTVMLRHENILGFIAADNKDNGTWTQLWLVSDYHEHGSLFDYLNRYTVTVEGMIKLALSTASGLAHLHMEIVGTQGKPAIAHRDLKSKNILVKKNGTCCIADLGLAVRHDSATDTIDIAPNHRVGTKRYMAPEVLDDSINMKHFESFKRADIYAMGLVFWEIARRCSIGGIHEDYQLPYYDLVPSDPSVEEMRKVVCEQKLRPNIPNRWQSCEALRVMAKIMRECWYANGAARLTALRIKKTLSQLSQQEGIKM
# Chain of ALK6 (aa168-495) (O00238 168-495): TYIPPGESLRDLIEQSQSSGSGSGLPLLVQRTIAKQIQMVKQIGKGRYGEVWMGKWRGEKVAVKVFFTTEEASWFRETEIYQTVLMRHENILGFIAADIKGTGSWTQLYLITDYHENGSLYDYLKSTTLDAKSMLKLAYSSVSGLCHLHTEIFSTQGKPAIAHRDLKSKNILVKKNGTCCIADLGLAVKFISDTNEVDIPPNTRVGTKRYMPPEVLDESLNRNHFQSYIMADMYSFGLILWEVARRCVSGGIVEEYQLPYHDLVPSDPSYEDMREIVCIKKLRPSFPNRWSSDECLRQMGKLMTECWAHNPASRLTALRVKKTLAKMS
# Chain of ALK1 (aa166-493) (P37023 166-493): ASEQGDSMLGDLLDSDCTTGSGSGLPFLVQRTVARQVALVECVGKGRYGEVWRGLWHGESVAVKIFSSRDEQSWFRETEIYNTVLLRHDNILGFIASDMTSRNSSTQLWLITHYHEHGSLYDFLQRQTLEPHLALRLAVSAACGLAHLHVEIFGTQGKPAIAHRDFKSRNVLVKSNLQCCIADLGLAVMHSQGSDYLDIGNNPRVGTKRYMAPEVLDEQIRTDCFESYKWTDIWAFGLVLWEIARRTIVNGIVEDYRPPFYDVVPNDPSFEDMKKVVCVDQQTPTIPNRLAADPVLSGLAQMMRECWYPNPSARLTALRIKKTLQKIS
# T1 sequence (Q04771 172-499): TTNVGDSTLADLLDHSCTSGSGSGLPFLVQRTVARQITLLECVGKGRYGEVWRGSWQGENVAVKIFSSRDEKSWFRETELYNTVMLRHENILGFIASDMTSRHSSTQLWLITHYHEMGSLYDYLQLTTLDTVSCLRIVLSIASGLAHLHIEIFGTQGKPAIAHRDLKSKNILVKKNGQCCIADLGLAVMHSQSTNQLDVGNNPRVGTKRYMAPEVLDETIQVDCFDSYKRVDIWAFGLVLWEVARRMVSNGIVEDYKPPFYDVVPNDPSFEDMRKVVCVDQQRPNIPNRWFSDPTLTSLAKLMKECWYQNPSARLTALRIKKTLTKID
Compound,IC50 [1],IC50 [2],IC50 [3],IC50 [4],IC50 [5],IC50 [6],IC50 [7]
"Nc1ncc(-c2ccc([C@@]34C[C@@H]3CN(C3COC3)C4)cc2)cc1C(=O)NC12CCC(O)(CC1)CC2 [Example 64, 2-amino-N-(4-hydroxybicyclo[2.2.2]octan-1-yl)-5-(4-((1R,5S)-3-(oxetan-3-yl)-3-azabicyclo[3.1.0]hexan-1-yl)phenyl)nicotinamide]",1 µM,0.063 µM,0.11 µM,7.5 µM,3.8 µM,0.38 µM,2.2 µM
"Nc1ncc(-c2ccc([C@@]34C[C@@H]3CN(CC(F)(F)F)C4)cc2)cc1C(=O)N[C@H]1CC[C@H](O)CC1 [Example 77, 2-amino-N-((1r,4R)-4-hydroxycyclohexyl)-5-(4-((1R,5S)-3-(2,2,2-trifluoroethyl)-3-azabicyclo[3.1.0]hexan-1-yl)phenyl)nicotinamide]",0.32 µM,0.08 µM,0.028 µM,10 µM,8.6 µM,1.3 µM,3.3 µM
"Nc1ncc(-c2ccc(OCCCN3CCOCC3)cc2)cc1C(=O)NC1CCCCC1 [Example 52, 2-amino-N-cyclohexyl-5-(4-(3-morpholinopropoxy)phenyl)nicotinamide]",0.97 µM,0.031 µM,0.067 µM,8.6 µM,20.2 µM,0.34 µM,2.8 µM
"Nc1ncc(-c2ccc([C@@]34C[C@@H]3CN(CC3COC3)C4)cc2)cc1C(=O)N[C@H]1CC[C@H](O)CC1 [Example 70, 2-amino-N-((1r,4R)-4-hydroxycyclohexyl)-5-(4-((1R,5S)-3-(oxetan-3-ylmethyl)-3-azabicyclo[3.1.0]hexan-1-yl)phenyl)nicotinamide]",0.305 µM,0.068 µM,0.02 µM,9.4 µM,8.75 µM,0.513 µM,2.85 µM
"Nc1ncc(-c2ccc([C@@]34C[C@@H]3CN(CCN3CCOCC3)C4)cc2)cc1C(=O)N[C@H]1CC[C@H](O)CC1 [Example 10, 2-amino-N-((1r,4R)-4-hydroxycyclohexyl)-5-(4-((1R,5S)-3-(2-morpholinoethyl)-3-azabicyclo[3.1.0]hexan-1-yl)phenyl)nicotinamide]",0.089 µM,0.011 µM,0.011 µM,2.6 µM,2.5 µM,0.061 µM,1.4 µM
"C[C@H](c1ccc(-c2cnc(N)c(C(=O)N[C@]3(C)CC[C@@H](O)CC3)c2)cc1)N1CC2(COC2)C1 [Example 86, 5-(4-((R)-1-(2-oxa-6-azaspiro[3.3]heptan-6-yl)ethyl)phenyl)-2-amino-N-((1r,4R)-4-hydroxy-1-methylcyclohexyl)nicotinamide]",2.3 µM,0.205 µM,0.11 µM,10 µM,10 µM,1.08 µM,8.2 µM
